# According to US20100160351A1, “PHARMACEUTICAL COMPOSITIONS AND METHODS FOR TREATING HYPERURICEMIA AND RELATED DISORDERS” (NUON THERAPEUTICS, INC., priority 2008, published 2010):
# System: serum uric acid (sUA) levels in hyperuricemic patients
# Test: PRESTO study: change in serum uric acid in hyperuricemic patients (baseline >=8 mg/dL), Tranilast twice daily for 1 or 3 months
# Type: in vivo, human
# Experimental: The PRESTO (Prevention of Restenosis with Tranilast and its Outcomes) study was a multicenter study of ˜11,500 patients undergoing percutaneous transluminal coronary revascularization (PTCR) with or without stenting for single or multiple vessels over a 9-month period. The study compared the composite clinical event rate of death, myocardial infarction, or need for ischemia-driven target vessel revascularization in patients treated with Tranilast (300 and 450 mg twice daily) for 1 or 3 months versus placebo. Description of the study protocol and patient population can be found in Holmes et al., The PRESTO (Prevention of Restenosis with Tranilast and its Outcomes) protocol: A double-blind, placebo-controlled trial, Am Heart J 2000; 139:23-31; and Holmes et al., Results of Prevention of REStenosis with Tranilast and its Outcomes (PRESTO) Trial, Circulation. 2002; 106:1243, both of which are incorporated by reference herein in their entirety.
# Gout was a contraindication for patient enrollment in the PRESTO trial. Nevertheless, 1100 patients enrolled in the trial were identified with baseline hyperuricemia defined as initial serum uric acid (sUA) levels greater than or equal to 7 mg/dL. Of these, approximately 300 participants had baseline serum uric acid levels greater than or equal to 8 mg/dL. […] As indicated in FIG. 1 and Table 4, some patients were treated with placebo, some patients were treated with Tranilast for 4 weeks followed by placebo, and some patients were treated with Tranilast for 12 weeks.
compound,measurement,setting,value
"COc1ccc(/C=C/C(=O)Nc2ccccc2C(=O)O)cc1OC [Tranilast, 2-[[3-(3,4-dimethoxyphenyl)-1-oxo-2-propenyl]amino]benzoic acid]","Change from Baseline in Uric Acid, Max","3M TRAN 300 mg, Follow-Up",3.04 mg/dL
same,"Change from Baseline in Uric Acid, Mean (SD)","3M TRAN 300 mg, Follow-Up",−0.00 (1.519) mg/dL
same,"Change from Baseline in Uric Acid, Median","3M TRAN 300 mg, Follow-Up",-0.13 mg/dL
same,"Change from Baseline in Uric Acid, Min","3M TRAN 300 mg, Follow-Up",-3.00 mg/dL
same,"Change from Baseline in Uric Acid, Max","3M TRAN 300 mg, Post-PTCR",1.90 mg/dL
same,"Change from Baseline in Uric Acid, Mean (SD)","3M TRAN 300 mg, Post-PTCR",−1.81 (1.966) mg/dL
same,"Change from Baseline in Uric Acid, Median","3M TRAN 300 mg, Post-PTCR",-1.58 mg/dL
same,"Change from Baseline in Uric Acid, Min","3M TRAN 300 mg, Post-PTCR",-14.79 mg/dL
same,"Change from Baseline in Uric Acid, Max","3M TRAN 300 mg, Week 1",3.14 mg/dL
same,"Change from Baseline in Uric Acid, Mean (SD)","3M TRAN 300 mg, Week 1",−2.96 (2.394) mg/dL
same,"Change from Baseline in Uric Acid, Median","3M TRAN 300 mg, Week 1",-2.85 mg/dL
same,"Change from Baseline in Uric Acid, Min","3M TRAN 300 mg, Week 1",-15.66 mg/dL
same,"Change from Baseline in Uric Acid, Max","3M TRAN 300 mg, Week 2",2.30 mg/dL
same,"Change from Baseline in Uric Acid, Mean (SD)","3M TRAN 300 mg, Week 2",−2.98 (2.224) mg/dL
same,"Change from Baseline in Uric Acid, Median","3M TRAN 300 mg, Week 2",-2.94 mg/dL
same,"Change from Baseline in Uric Acid, Min","3M TRAN 300 mg, Week 2",-15.09 mg/dL
same,"Change from Baseline in Uric Acid, Max","3M TRAN 300 mg, Week 3",1.92 mg/dL
same,"Change from Baseline in Uric Acid, Mean (SD)","3M TRAN 300 mg, Week 3",−2.92 (1.946) mg/dL
same,"Change from Baseline in Uric Acid, Median","3M TRAN 300 mg, Week 3",-3.00 mg/dL
same,"Change from Baseline in Uric Acid, Min","3M TRAN 300 mg, Week 3",-6.13 mg/dL
same,"Change from Baseline in Uric Acid, Max","3M TRAN 300 mg, Week 4",1.98 mg/dL
same,"Change from Baseline in Uric Acid, Mean (SD)","3M TRAN 300 mg, Week 4",−2.83 (2.212) mg/dL
same,"Change from Baseline in Uric Acid, Median","3M TRAN 300 mg, Week 4",-2.80 mg/dL
same,"Change from Baseline in Uric Acid, Min","3M TRAN 300 mg, Week 4",-14.30 mg/dL
same,"Change from Baseline in Uric Acid, Max","3M TRAN 300 mg, Week 6",8.50 mg/dL
same,"Change from Baseline in Uric Acid, Mean (SD)","3M TRAN 300 mg, Week 6",−2.75 (2.755) mg/dL
same,"Change from Baseline in Uric Acid, Median","3M TRAN 300 mg, Week 6",-3.00 mg/dL
same,"Change from Baseline in Uric Acid, Min","3M TRAN 300 mg, Week 6",-15.65 mg/dL
same,"Change from Baseline in Uric Acid, Max","3M TRAN 300 mg, Week 8",1.70 mg/dL
same,"Change from Baseline in Uric Acid, Mean (SD)","3M TRAN 300 mg, Week 8",−2.76 (2.451) mg/dL
same,"Change from Baseline in Uric Acid, Median","3M TRAN 300 mg, Week 8",-2.71 mg/dL
same,"Change from Baseline in Uric Acid, Min","3M TRAN 300 mg, Week 8",-15.77 mg/dL
same,"Change from Baseline in Uric Acid, Max","3M TRAN 300 mg, Week 10",2.30 mg/dL
same,"Change from Baseline in Uric Acid, Mean (SD)","3M TRAN 300 mg, Week 10",−2.97 (2.490) mg/dL
same,"Change from Baseline in Uric Acid, Median","3M TRAN 300 mg, Week 10",-2.98 mg/dL
same,"Change from Baseline in Uric Acid, Min","3M TRAN 300 mg, Week 10",-15.65 mg/dL
same,"Change from Baseline in Uric Acid, Max","3M TRAN 300 mg, Week 12",3.60 mg/dL
same,"Change from Baseline in Uric Acid, Mean (SD)","3M TRAN 300 mg, Week 12",−2.74 (2.634) mg/dL
same,"Change from Baseline in Uric Acid, Median","3M TRAN 300 mg, Week 12",-2.69 mg/dL
same,"Change from Baseline in Uric Acid, Min","3M TRAN 300 mg, Week 12",-16.02 mg/dL
same,"Change from Baseline in Uric Acid, Max","3M TRAN 450 mg, Follow-Up",1.80 mg/dL
same,"Change from Baseline in Uric Acid, Mean (SD)","3M TRAN 450 mg, Follow-Up",−0.67 (1.277) mg/dL
same,"Change from Baseline in Uric Acid, Median","3M TRAN 450 mg, Follow-Up",-0.70 mg/dL
same,"Change from Baseline in Uric Acid, Min","3M TRAN 450 mg, Follow-Up",-2.90 mg/dL
same,"Change from Baseline in Uric Acid, Max","3M TRAN 450 mg, Post-PTCR",1.70 mg/dL
same,"Change from Baseline in Uric Acid, Mean (SD)","3M TRAN 450 mg, Post-PTCR",−2.16 (1.577) mg/dL
same,"Change from Baseline in Uric Acid, Median","3M TRAN 450 mg, Post-PTCR",-1.90 mg/dL
same,"Change from Baseline in Uric Acid, Min","3M TRAN 450 mg, Post-PTCR",-7.34 mg/dL
same,"Change from Baseline in Uric Acid, Max","3M TRAN 450 mg, Week 1",0.90 mg/dL
same,"Change from Baseline in Uric Acid, Mean (SD)","3M TRAN 450 mg, Week 1",−3.84 (1.839) mg/dL
same,"Change from Baseline in Uric Acid, Median","3M TRAN 450 mg, Week 1",-3.99 mg/dL
same,"Change from Baseline in Uric Acid, Min","3M TRAN 450 mg, Week 1",-8.79 mg/dL
same,"Change from Baseline in Uric Acid, Max","3M TRAN 450 mg, Week 2",0.92 mg/dL
same,"Change from Baseline in Uric Acid, Mean (SD)","3M TRAN 450 mg, Week 2",−4.05 (1.861) mg/dL
same,"Change from Baseline in Uric Acid, Median","3M TRAN 450 mg, Week 2",-4.56 mg/dL
same,"Change from Baseline in Uric Acid, Min","3M TRAN 450 mg, Week 2",-8.72 mg/dL
same,"Change from Baseline in Uric Acid, Max","3M TRAN 450 mg, Week 3",1.50 mg/dL
same,"Change from Baseline in Uric Acid, Mean (SD)","3M TRAN 450 mg, Week 3",−2.84 (2.227) mg/dL
same,"Change from Baseline in Uric Acid, Median","3M TRAN 450 mg, Week 3",-3.79 mg/dL
same,"Change from Baseline in Uric Acid, Min","3M TRAN 450 mg, Week 3",-5.79 mg/dL
same,"Change from Baseline in Uric Acid, Max","3M TRAN 450 mg, Week 4",1.43 mg/dL
same,"Change from Baseline in Uric Acid, Mean (SD)","3M TRAN 450 mg, Week 4",−3.70 (2.190) mg/dL
same,"Change from Baseline in Uric Acid, Median","3M TRAN 450 mg, Week 4",-3.90 mg/dL
same,"Change from Baseline in Uric Acid, Min","3M TRAN 450 mg, Week 4",-8.40 mg/dL
same,"Change from Baseline in Uric Acid, Max","3M TRAN 450 mg, Week 6",2.70 mg/dL
same,"Change from Baseline in Uric Acid, Mean (SD)","3M TRAN 450 mg, Week 6",−3.89 (2.265) mg/dL
same,"Change from Baseline in Uric Acid, Median","3M TRAN 450 mg, Week 6",-4.39 mg/dL
same,"Change from Baseline in Uric Acid, Min","3M TRAN 450 mg, Week 6",-8.69 mg/dL
same,"Change from Baseline in Uric Acid, Max","3M TRAN 450 mg, Week 8",1.40 mg/dL
same,"Change from Baseline in Uric Acid, Mean (SD)","3M TRAN 450 mg, Week 8",−3.65 (2.104) mg/dL
same,"Change from Baseline in Uric Acid, Median","3M TRAN 450 mg, Week 8",-3.83 mg/dL
same,"Change from Baseline in Uric Acid, Min","3M TRAN 450 mg, Week 8",-7.16 mg/dL
same,"Change from Baseline in Uric Acid, Max","3M TRAN 450 mg, Week 10",1.50 mg/dL
same,"Change from Baseline in Uric Acid, Mean (SD)","3M TRAN 450 mg, Week 10",−3.73 (2.306) mg/dL
same,"Change from Baseline in Uric Acid, Median","3M TRAN 450 mg, Week 10",-4.10 mg/dL
same,"Change from Baseline in Uric Acid, Min","3M TRAN 450 mg, Week 10",-8.60 mg/dL
same,"Change from Baseline in Uric Acid, Max","3M TRAN 450 mg, Week 12",0.50 mg/dL
same,"Change from Baseline in Uric Acid, Mean (SD)","3M TRAN 450 mg, Week 12",−3.79 (2.065) mg/dL
same,"Change from Baseline in Uric Acid, Median","3M TRAN 450 mg, Week 12",-4.30 mg/dL
same,"Change from Baseline in Uric Acid, Min","3M TRAN 450 mg, Week 12",-8.12 mg/dL
same,serum uric acid levels in patients treated with Tranilast,"analysis of PRESTO data, 300 and 450 mg twice daily",markedly decreased
